This passage reports EC50 results from ChEMBL document CHEMBL5244248, “A novel long-acting oxyntomodulin analogue eliminates diabetes and obesity in mice” (Eur J Med Chem, 2020).

pEC50: −log10 of the molar value. Square brackets hold non-standard residues; d marks the D form. Peptide text beside a SMILES is read from it. Aib = CC(C)(N)C(=O)O

Experiment [1] deals with T1, Glucagon-like peptide 1 receptor (Mus musculus, UniProt O35659).
T1 sequence (O35659 whole entry): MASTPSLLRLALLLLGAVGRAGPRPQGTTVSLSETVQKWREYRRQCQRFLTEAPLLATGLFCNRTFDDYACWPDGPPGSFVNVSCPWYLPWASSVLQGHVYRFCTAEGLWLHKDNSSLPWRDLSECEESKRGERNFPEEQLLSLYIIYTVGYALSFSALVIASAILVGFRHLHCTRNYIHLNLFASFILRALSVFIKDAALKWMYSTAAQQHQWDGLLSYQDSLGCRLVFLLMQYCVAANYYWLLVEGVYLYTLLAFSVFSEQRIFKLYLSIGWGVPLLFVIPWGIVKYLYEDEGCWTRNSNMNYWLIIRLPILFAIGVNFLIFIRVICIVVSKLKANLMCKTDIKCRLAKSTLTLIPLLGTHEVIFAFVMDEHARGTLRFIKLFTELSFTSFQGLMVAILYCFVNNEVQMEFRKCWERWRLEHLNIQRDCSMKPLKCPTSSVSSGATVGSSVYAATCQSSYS
The experiment in a line: Agonist activity at mouse GLP-1R expressed in CHO cells assessed as increase in cAMP accumulation. The experiment is classed as cell-based. A general note: cAMP levels reflect the balance of adenylyl cyclase and phosphodiesterase activity.

For another experiment, the target named is Glucagon receptor (Mus musculus, UniProt Q61606). Briefly: Agonist activity at mouse GCGR expressed in CHO cells assessed as increase in cAMP accumulation. It is filed as cell-based.
Sequence of Glucagon receptor (Q61606 whole entry): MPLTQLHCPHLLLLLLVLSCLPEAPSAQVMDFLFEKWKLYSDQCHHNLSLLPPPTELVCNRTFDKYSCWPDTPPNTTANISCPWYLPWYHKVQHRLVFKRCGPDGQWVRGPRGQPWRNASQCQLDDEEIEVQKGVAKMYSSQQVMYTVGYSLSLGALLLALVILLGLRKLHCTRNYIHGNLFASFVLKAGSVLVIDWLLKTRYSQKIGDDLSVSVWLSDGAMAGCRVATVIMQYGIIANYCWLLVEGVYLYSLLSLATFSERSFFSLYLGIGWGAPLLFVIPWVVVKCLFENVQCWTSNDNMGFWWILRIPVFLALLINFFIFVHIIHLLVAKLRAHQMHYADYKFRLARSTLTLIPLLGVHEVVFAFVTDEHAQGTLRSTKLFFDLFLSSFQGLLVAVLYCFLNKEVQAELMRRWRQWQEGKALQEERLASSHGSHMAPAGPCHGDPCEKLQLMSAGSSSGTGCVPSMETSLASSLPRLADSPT

The term pEC50 denotes −log10 of the EC50, conventionally taken in molar units. For `CC[C@H](C)[C@H](NC(=O)[C@H](CC(N)=O)NC(=O)[C@H](CC(N)=O)NC(=O)[C@H](CCCNC(=N)N)NC(=O)[C@H](CC(N)=O)NC(=O)[C@H](CCCNC(=N)N)NC(=O)[C@H](CCCCN)NC(=O)[C@@H](NC(=O)[C@H](CC(N)=O)NC(=O)[C@H](CCSC)NC(=O)[C@H](CC(C)C)NC(=O)[C@H](Cc1c[nH]c2ccccc12)NC(=O)[C@H](CCC(N)=O)NC(=O)[C@@H](NC(=O)[C@H](Cc1ccccc1)NC(=O)[C@H](CCC(=O)O)NC(=O)[C@H](CCCCN)NC(=O)[C@H](C)NC(=O)[C@H](CCCNC(=N)N)NC(=O)[C@H](CCCCN)NC(=O)[C@H](CCC(=O)O)NC(=O)[C@H](CC(=O)O)NC(=O)[C@H](CC(C)C)NC(=O)[C@H](Cc1ccc(O)cc1)NC(=O)[C@H](CCCCN)NC(=O)[C@H](CO)NC(=O)[C@H](Cc1ccc(O)cc1)NC(=O)[C@H](CC(=O)O)NC(=O)[C@H](CO)NC(=O)[C@@H](NC(=O)[C@H](Cc1ccccc1)NC(=O)[C@@H](NC(=O)CNC(=O)[C@H](CCC(N)=O)NC(=O)C(C)(C)NC(=O)[C@@H](N)Cc1c[nH]cn1)[C@@H](C)O)[C@@H](C)O)C(C)C)[C@@H](C)O)C(=O)N[C@@H](C)C(N)=O`, the results for the pEC50 (in experiment [1]; on Glucagon receptor) were 9.21 and 9.03, respectively.
The matching figures for `CSCC[C@H](NC(=O)[C@H](CC(C)C)NC(=O)[C@H](Cc1c[nH]c2ccccc12)NC(=O)[C@H](CCC(N)=O)NC(=O)[C@@H](NC(=O)[C@H](Cc1ccccc1)NC(=O)[C@H](CCC(=O)O)NC(=O)[C@H](CCCCN)NC(=O)[C@H](C)NC(=O)[C@H](CCCNC(=N)N)NC(=O)[C@H](CCCCN)NC(=O)[C@H](CCC(=O)O)NC(=O)[C@H](CC(=O)O)NC(=O)[C@H](CC(C)C)NC(=O)[C@H](Cc1ccc(O)cc1)NC(=O)[C@H](CCCCN)NC(=O)[C@H](CO)NC(=O)[C@H](Cc1ccc(O)cc1)NC(=O)[C@H](CC(=O)O)NC(=O)[C@H](CO)NC(=O)[C@@H](NC(=O)[C@H](Cc1ccccc1)NC(=O)[C@@H](NC(=O)CNC(=O)[C@H](CCC(N)=O)NC(=O)C(C)(C)NC(=O)[C@@H](N)Cc1c[nH]cn1)[C@@H](C)O)[C@@H](C)O)C(C)C)C(=O)N[C@@H](CC(N)=O)C(=O)N[C@H](C(=O)NCC(=O)N1CCC[C@H]1C(=O)N[C@@H](CO)C(=O)N[C@@H](CO)C(=O)NCC(=O)N[C@@H](C)C(=O)N1CCC[C@H]1C(=O)N[C@@H](CO)C(=O)N[C@@H](CS)C(N)=O)[C@@H](C)O`: 9.40 and 9.23.
On the same counts, the results for `CSCC[C@H](NC(=O)[C@H](CC(C)C)NC(=O)[C@H](Cc1c[nH]c2ccccc12)NC(=O)[C@H](CCC(N)=O)NC(=O)[C@@H](NC(=O)[C@H](Cc1ccccc1)NC(=O)[C@H](CCC(=O)O)NC(=O)[C@H](CCCCN)NC(=O)[C@H](C)NC(=O)[C@H](CCCNC(=N)N)NC(=O)[C@H](CCCCN)NC(=O)[C@H](CCC(=O)O)NC(=O)[C@H](CC(=O)O)NC(=O)[C@H](CC(C)C)NC(=O)[C@H](Cc1ccc(O)cc1)NC(=O)[C@H](CCCCN)NC(=O)[C@H](CO)NC(=O)[C@H](Cc1ccc(O)cc1)NC(=O)[C@H](CC(=O)O)NC(=O)[C@H](CO)NC(=O)[C@@H](NC(=O)[C@H](Cc1ccccc1)NC(=O)[C@@H](NC(=O)CNC(=O)[C@H](CCC(N)=O)NC(=O)C(C)(C)NC(=O)[C@@H](N)Cc1c[nH]cn1)[C@@H](C)O)[C@@H](C)O)C(C)C)C(=O)N[C@@H](CC(N)=O)C(=O)N[C@H](C(=O)NCC(=O)N1CCC[C@H]1C(=O)N[C@@H](CO)C(=O)N[C@@H](CO)C(=O)NCC(=O)N[C@@H](C)C(=O)N1CCC[C@H]1C(=O)N[C@@H](CO)C(N)=O)[C@@H](C)O` are 9.44 and 9.28.
With `CC[C@H](C)[C@H](NC(=O)[C@H](CC(N)=O)NC(=O)[C@H](CC(N)=O)NC(=O)[C@H](CCCNC(=N)N)NC(=O)[C@H](CC(N)=O)NC(=O)[C@H](CCCNC(=N)N)NC(=O)[C@H](CCCCN)NC(=O)[C@@H](NC(=O)[C@H](CC(N)=O)NC(=O)[C@H](CCSC)NC(=O)[C@H](CC(C)C)NC(=O)[C@H](Cc1c[nH]c2ccccc12)NC(=O)[C@H](CCC(N)=O)NC(=O)[C@@H](NC(=O)[C@H](Cc1ccccc1)NC(=O)[C@H](CCC(=O)O)NC(=O)[C@H](CCCCN)NC(=O)[C@H](C)NC(=O)[C@H](CCCNC(=N)N)NC(=O)[C@H](CCCCN)NC(=O)[C@H](CCC(=O)O)NC(=O)[C@H](CC(=O)O)NC(=O)[C@H](CC(C)C)NC(=O)[C@H](Cc1ccc(O)cc1)NC(=O)[C@H](CCCCN)NC(=O)[C@H](CO)NC(=O)[C@H](Cc1ccc(O)cc1)NC(=O)[C@H](CC(=O)O)NC(=O)[C@H](CCC(=O)O)NC(=O)[C@@H](NC(=O)[C@H](Cc1ccccc1)NC(=O)[C@@H](NC(=O)CNC(=O)[C@H](CCC(N)=O)NC(=O)C(C)(C)NC(=O)[C@@H](N)Cc1c[nH]cn1)[C@@H](C)O)[C@@H](C)O)C(C)C)[C@@H](C)O)C(=O)N[C@@H](C)C(N)=O` (H-H[Aib]QGTFTEDYSKYLDEKRAKEFVQWLMNTKRNRNNIA-NH2), the figures for the pEC50 (in experiment [1]; on Glucagon receptor) were 7.75 and 8.04, respectively.
The matching figures for `CC[C@H](C)[C@H](NC(=O)[C@H](CC(N)=O)NC(=O)[C@H](CC(N)=O)NC(=O)[C@H](CCCNC(=N)N)NC(=O)[C@H](CC(N)=O)NC(=O)[C@H](CCCNC(=N)N)NC(=O)[C@H](CCCCN)NC(=O)[C@@H](NC(=O)[C@H](CC(N)=O)NC(=O)[C@H](CCSC)NC(=O)[C@H](CC(C)C)NC(=O)[C@H](Cc1c[nH]c2ccccc12)NC(=O)[C@H](CCC(=O)O)NC(=O)[C@@H](NC(=O)[C@H](Cc1ccccc1)NC(=O)[C@H](CCC(=O)O)NC(=O)[C@H](CCCCN)NC(=O)[C@H](C)NC(=O)[C@H](CCCNC(=N)N)NC(=O)[C@H](CCCCN)NC(=O)[C@H](CCC(=O)O)NC(=O)[C@H](CC(=O)O)NC(=O)[C@H](CC(C)C)NC(=O)[C@H](Cc1ccc(O)cc1)NC(=O)[C@H](CCCCN)NC(=O)[C@H](CO)NC(=O)[C@H](Cc1ccc(O)cc1)NC(=O)[C@H](CC(=O)O)NC(=O)[C@H](CO)NC(=O)[C@@H](NC(=O)[C@H](Cc1ccccc1)NC(=O)[C@@H](NC(=O)CNC(=O)[C@H](CCC(N)=O)NC(=O)C(C)(C)NC(=O)[C@@H](N)Cc1c[nH]cn1)[C@@H](C)O)[C@@H](C)O)C(C)C)[C@@H](C)O)C(=O)N[C@@H](C)C(N)=O` (H-H[Aib]QGTFTSDYSKYLDEKRAKEFVEWLMNTKRNRNNIA-NH2): 8.87 and 8.84.
The matching figures for `CC[C@H](C)[C@H](NC(=O)[C@H](CC(N)=O)NC(=O)[C@H](CC(N)=O)NC(=O)[C@H](CCCNC(=N)N)NC(=O)[C@H](CC(N)=O)NC(=O)[C@H](CCCNC(=N)N)NC(=O)[C@H](CCCCN)NC(=O)[C@@H](NC(=O)[C@H](CC(N)=O)NC(=O)[C@H](CCSC)NC(=O)[C@H](CC(C)C)NC(=O)[C@H](Cc1c[nH]c2ccccc12)NC(=O)[C@H](CCC(N)=O)NC(=O)[C@@H](NC(=O)[C@H](Cc1ccccc1)NC(=O)[C@H](CC(=O)O)NC(=O)[C@H](CCCCN)NC(=O)[C@H](C)NC(=O)[C@H](CCCNC(=N)N)NC(=O)[C@H](CCCNC(=N)N)NC(=O)[C@H](CCC(=O)O)NC(=O)[C@H](CC(=O)O)NC(=O)[C@H](CC(C)C)NC(=O)[C@H](Cc1ccc(O)cc1)NC(=O)[C@H](CCCCN)NC(=O)[C@H](CO)NC(=O)[C@H](Cc1ccc(O)cc1)NC(=O)[C@H](CC(=O)O)NC(=O)[C@H](CO)NC(=O)[C@@H](NC(=O)[C@H](Cc1ccccc1)NC(=O)[C@@H](NC(=O)CNC(=O)[C@H](CCC(N)=O)NC(=O)C(C)(C)NC(=O)[C@@H](N)Cc1c[nH]cn1)[C@@H](C)O)[C@@H](C)O)C(C)C)[C@@H](C)O)C(=O)N[C@@H](C)C(N)=O` (H-H[Aib]QGTFTSDYSKYLDERRAKDFVQWLMNTKRNRNNIA-NH2): 8.80 and 8.47.
The matching figures for `CC[C@H](C)[C@H](NC(=O)[C@H](CC(N)=O)NC(=O)[C@H](CC(N)=O)NC(=O)[C@H](CCCNC(=N)N)NC(=O)[C@H](CC(N)=O)NC(=O)[C@H](CCCNC(=N)N)NC(=O)[C@H](CCCCN)NC(=O)[C@@H](NC(=O)[C@H](CC(N)=O)NC(=O)[C@H](CCSC)NC(=O)[C@H](CC(C)C)NC(=O)[C@H](Cc1c[nH]c2ccccc12)NC(=O)[C@H](CCC(N)=O)NC(=O)[C@@H](NC(=O)[C@H](Cc1ccccc1)NC(=O)[C@H](CC(=O)O)NC(=O)[C@H](CCC(N)=O)NC(=O)[C@H](C)NC(=O)[C@H](CCCNC(=N)N)NC(=O)[C@H](CCCNC(=N)N)NC(=O)[C@H](CCC(=O)O)NC(=O)[C@H](CC(=O)O)NC(=O)[C@H](CC(C)C)NC(=O)[C@H](Cc1ccc(O)cc1)NC(=O)[C@H](CCCCN)NC(=O)[C@H](CO)NC(=O)[C@H](Cc1ccc(O)cc1)NC(=O)[C@H](CC(=O)O)NC(=O)[C@H](CO)NC(=O)[C@@H](NC(=O)[C@H](Cc1ccccc1)NC(=O)[C@@H](NC(=O)CNC(=O)[C@H](CCC(N)=O)NC(=O)C(C)(C)NC(=O)[C@@H](N)Cc1c[nH]cn1)[C@@H](C)O)[C@@H](C)O)C(C)C)[C@@H](C)O)C(=O)N[C@@H](C)C(N)=O` (H-H[Aib]QGTFTSDYSKYLDERRAQDFVQWLMNTKRNRNNIA-NH2): 8.46 and 8.21.
